# According to patent publication US9434724B2, “Quinuclidines for modulating alpha 7 activity” (priority 2014, dated 2016):
# Where a name gives a salt, the structure may show the parent alone. Read-outs that look alike come from different tables or passages of the source.
# Legend:
# [1] = biological target: T1, rat brain nicotinic receptor (α7 NAChR) (Rattus norvegicus (Rat), UniProt Q05941); format: binding; conditions: Protocol No. 2; [3H] α-Bungarotoxin 0.4 nM, rat brain P2 membrane
# Human α7 NAChR = Human α7 NAChR (Homo sapiens (Human), UniProt P36544); assay: Electrophysiology screen at 1 μM in Xenopus laevis oocytes; format: cell-based; conditions: 1 μM test compound; Imax = maximal current produced by 3 mM ACh
# Human α7 NAChR, sequence (P36544 23-502 limits assumed): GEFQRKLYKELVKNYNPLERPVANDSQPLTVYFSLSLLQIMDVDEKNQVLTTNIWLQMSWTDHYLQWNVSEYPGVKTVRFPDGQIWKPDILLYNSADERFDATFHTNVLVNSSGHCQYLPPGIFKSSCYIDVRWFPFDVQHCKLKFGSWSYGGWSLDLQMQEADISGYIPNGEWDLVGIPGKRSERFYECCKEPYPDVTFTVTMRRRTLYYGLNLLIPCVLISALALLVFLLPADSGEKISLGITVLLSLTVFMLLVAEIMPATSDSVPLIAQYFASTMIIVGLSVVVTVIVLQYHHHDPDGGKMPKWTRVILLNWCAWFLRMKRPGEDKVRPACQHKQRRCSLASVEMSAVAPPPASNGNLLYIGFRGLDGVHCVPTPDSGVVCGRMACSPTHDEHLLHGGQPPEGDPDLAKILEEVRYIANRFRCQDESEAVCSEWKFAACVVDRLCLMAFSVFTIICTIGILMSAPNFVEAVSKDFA
# Procedure: Human α7 NAChR plasmid was prepared by GeneWiz from accession NM_000746.5. Human α7 NAChR mRNA was prepared by TriLink at a concentration near 1 μg/μL. The human α7 NAChR mRNA was diluted in sterile water to a working concentration near 10 ng/μL.
# Oocytes were obtained from Xenopus laevis frogs and treated with collagenase by Ecocyte Bioscience. Oocytes were injected with the working concentration of α7 NAChR mRNA at a volume of 50 nL for a total of approximately 0.5 ng of α7 NAChR mRNA. Oocytes were maintained in Barth's solution at a temperature of 16° C. The Barth's solution was replaced daily.
# Two-electrode voltage clamp recordings were made 3-14 days following mRNA injections at a holding voltage of −70 mV. The NAChR recordings were performed in Ca^++-free Ringer solution (115 mM NaCl, 2 mM KCl, 1.8 mM BaCl2, 5 mM HEPES; pH˜7.4) to limit Ca^++-activated chloride currents.
# In all oocyte recordings, drug and wash solutions were applied using a custom-designed microcapillary “linear array” which allows rapid application of agonists. Currents were recorded on a PC-based computer (PClamp, Molecular Devices, Sunnyvale, Calif.). Responses were reported as (I/Imax), where I is the amount of current given by a selected concentration of drug and Imax is the amount of maximal current produced by a 3 mM solution of ACh.
# Stocks of test compounds were prepared in DMSO. Test solutions in Ringer were prepared immediately before application of test compound (final DMSO concentration of 0.1%). The final concentration of test compound in the test solution was 1 μM. The test solution was perfused onto the oocyte until a peak current was recorded. There was approximately two minutes of wash time with only the Ringer solution between each application of agonist. Measurement of the test solution was repeated between 2 and 6 times with a two minute wash time between each application of test solution. An average of the currents for each test compound was used to define the response for the test compound.
# [2] = Metabolic stability assay in human liver microsomes (HLM); format: in vitro ADME; conditions: 1 μM
# Outline: (§1)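 In Protocol 1, compound was 1 μM final with NADPH at 37 °C, sampled at 0–45 min. In Protocol 2, 1.5 μM compound with 0.75 mg/mL microsomes (pre-NADPH mix) in 0.1 M potassium phosphate, 1 mM EDTA, pH 7.4 was pre-incubated 10 min, then NADPH started the reaction. Both: LC-MS/MS % remaining versus time 0, half-life from single-phase exponential fit.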
# [3] = Metabolic stability assay in rat liver microsomes (RLM); format: in vitro ADME; conditions: 1 μM
# Outline: as §1
# Human plasma stability = format: in vitro ADME; conditions: plasma, 5 μM
# Outline: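 Compound remaining was quantified by LC-MS/MS as peak-area ratio to internal standard relative to time 0, with half-lives from single-exponential fits. Protocol 1 incubated 1 μM in heparinized human plasma (pH 7.4, 37° C) to 120 min; protocol 2 used 5 μM, pH 7.4–8.0, 37° C, n=2, to 120 min.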
# [4] = biological target: T1, rat brain nicotinic receptor (α7 NAChR); format: binding
# [5] = Protocol No. 1, human liver microsomes
# [6] = Protocol No. 1, rat liver microsomes
# T1 sequence (Q05941 23-502 limits assumed): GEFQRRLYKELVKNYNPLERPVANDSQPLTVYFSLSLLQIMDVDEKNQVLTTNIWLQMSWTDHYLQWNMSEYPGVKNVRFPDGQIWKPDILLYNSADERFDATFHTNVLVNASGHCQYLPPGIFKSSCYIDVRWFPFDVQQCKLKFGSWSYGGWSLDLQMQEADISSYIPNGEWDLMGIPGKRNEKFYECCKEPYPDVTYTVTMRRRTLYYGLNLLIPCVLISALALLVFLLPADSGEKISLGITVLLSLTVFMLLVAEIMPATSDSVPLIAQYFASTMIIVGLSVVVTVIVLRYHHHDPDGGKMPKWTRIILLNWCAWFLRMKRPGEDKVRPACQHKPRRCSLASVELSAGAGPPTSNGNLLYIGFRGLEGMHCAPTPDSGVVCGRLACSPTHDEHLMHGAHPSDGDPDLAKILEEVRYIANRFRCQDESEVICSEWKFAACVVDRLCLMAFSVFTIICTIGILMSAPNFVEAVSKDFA
Structure (SMILES),IC50 [1] [µM],Ki [1] [µM],I/Imax (Human α7 NAChR),"HLM ([2]; human, microsomes) [L/h/kg]","RLM ([3]; rat, microsomes) [L/h/kg]","% Remaining @ 2 h (Human plasma stability; human, 2 h) [%]",IC50 [4] [µM],Ki [4] [µM],"HLM [2, 5] [L/h/kg]","RLM [3, 6] [L/h/kg]","% Remaining @ 2 h (Human plasma stability; Protocol No. 2, 37° C.) [%]"
"COCCOc1ccc2[nH]cc(C(=O)OCC34CCN(CC3)CC4)c2c1C [Compound 91, quinuclidin-4-ylmethyl 5-(2-methoxyethoxy)-4-methyl-1H-indole-3-carboxylate]",0.221,0.859,0.205,0.368,14.12,81.12,–,–,–,–,–
"COc1cc(Cl)cc2[nH]cc(C(=O)OCC34CCN(CC3)CC4)c12.Cl [Compound 74, quinuclidin-4-ylmethyl 6-chloro-4-methoxy-1H-indole-3-carboxylate hydrochloride]",–,–,0.157,–,–,–,0.181,0.154,0.57901,20.5642,61.85
"Cc1cc2[nH]cc(C(=O)OCC34CCN(CC3)CC4)c2cc1F [Compound 72, Quinuclidin-4-ylmethyl 5-fluoro-6-methyl-1H-indole-3-carboxylate hydrochloride]",–,–,0.347,–,–,–,0.145,0.125,0.1819,20.3671,70.78
"Cc1cc2[nH]cc(C(=O)OCC34CCN(CC3)CC4)c2cc1C.Cl [Compound 73, Quinuclidin-4-ylmethyl 5,6-dimethyl-1H-indole-3-carboxylate hydrochloride]",–,–,0.367,–,–,–,0.168,0.145,0.1695,46.0067,41.93
"Cc1ccc2[nH]cc(C(=O)OCC34CCN(CC3)CC4)c2c1Cl [Compound 63, quinuclidin-4-ylmethyl 4-chloro-5-methyl-1H-indole-3-carboxylate]",–,–,0.118,0.02774,87.9258,74.47,0.117,0.101,–,–,–
"COCCCOc1ccc2[nH]cc(C(=O)OCC34CCN(CC3)CC4)c2c1C [Compound 92, quinuclidin-4-ylmethyl 5-(3-methoxypropoxy)-4-methyl-1H-indole-3-carboxylate]",0.0761,0.133,0.266,0.6222,8.9928,64.72,–,–,–,–,–
"O=C(OCC12CCN(CC1)CC2)c1c[nH]c2ccc(F)c(Cl)c12 [Compound 62, quinuclidin-4-ylmethyl 4-chloro-5-fluoro-1H-indole-3-carboxylate hydrochloride]",–,–,0.171,0.4237,29.9395,74.02,0.113,0.0976,–,–,–
"Cl.O=C(OCC12CCN(CC1)CC2)c1c[nH]c2cccc(C(F)(F)F)c12 [Compound 80, Quinuclidin-4-ylmethyl 4-(trifluoromethyl)-1H-indole-3-carboxylate hydrochloride]",–,–,0.032,–,–,–,0.203,0.176,0.332,86.5896,81.31
